Among the data in patent publication US8552004B2, “Chemical compounds” (AstraZeneca AB, priority 2010, dated 2013) are IC50 and PF50 values, retold here.

Where “and” joins values, the source holds several entries; their conditions need not be identical. Identical values can stand only once. Like-named read-outs stand apart in the source and are kept apart here.

One assay concerns HT29 cells. As to the kind of experiment: Cellular SRB assay, potentiation of carboplatin (Test (c)). Format: cell-based, human. The note with it: for PF50: HT29. The procedure: (c) Cellular—SRB Assay The potentiation factor (PF50) for compounds is a measure of the fold increase in effect of a chemotherapeutic agent, when used in combination with an ATR inhibitor. Specifically, this is calculated as a ratio of the IC50 of control cell growth in the presence of a chemotherapeutic agent, typically carboplatin, divided by the IC50 of cell growth in the presence of this agent and the ATR inhibitor of interest. For this purpose, HT29 cells were seeded at the appropriate density to ensure exponential growth throughout the time of the assay (typically 1000-1500 cells) in each well of a 96-well plate, in a volume of 80 μl and incubated overnight at 37° C. Subsequently, cells were dosed with either DMSO vehicle, or treated with test compounds at fixed concentrations (typically 1, 0.3 & 0.1 μM). Following a one hour incubation at 37° C., the cells were further treated with a 10 point dose response of the chemotherapeutic agent, based on it's known sensitivity (typically 30-0.001 ug/ml for carboplatin). Cells were left to grow for 5 days at 37° C., after which time cell growth was assessed using the sulforhodamine B (SRB) assay (Skehan, P et al, 1990 New colorimetric cytotoxic assay for anticancer-drug screening. J. Natl. Cancer Inst. 82, 1107-1112.). Specifically, the media was removed and cells fixed with 100 μl of ice cold 10% (w/v) trichloroacetic acid. The plates were then incubated at 4° C. for 20 minutes prior to washing 4 times with water. Each well was then stained with 100 μL of 0.4% (w/v) SRB in 1% acetic acid for 20 minutes before a further 4 washes with 1% acetic acid. Plates were then dried for 2 hours at room temperature and the dye was solubilized by the addition of 100 μL Tris Base pH 8.5 into each well. Plates were shaken before measuring optical density at 564 nm (OD564). In order to calculate the PF50, the OD564 values obtained for the dose-response curve of chemotherapeutic agent were expressed as a percentage of the value obtained from cells treated with vehicle alone. Similarly, to act as a control for inclusion of the ATR inhibitor, values from the chemotherapeutic agent tested in combination with a fixed ATR inhibitor concentration were expressed as a percentage of the value obtained from cells treated with the corresponding concentration of ATR inhibitor alone. From these internally-controlled curves, IC50 values were calculated and the PF50 was determined as the ratio of these values, as described above. Compounds are compared using the PF50 value at concentrations of ATR inhibitor that show minimal growth inhibition on their own. IC50 values were calculated with XLfit (IDBS, Surrey UK) using the dose response, 4 parameter logistic model #203. Top (max) and bottom (min) curve fitting was free and not locked to 100% to 0% respectively.

Assay [1] concerns the target T1, ATR (Homo sapiens (Human), UniProt Q13535). As to the kind of experiment: Cellular Assay - ATR, phosphorylation of Chk1 (Ser 345) in HT29 cells after 4NQO (Test (b)). The assay is classed as cell-based. The note with it: cell assay Test (b); pChk1 Ser345 in HT29 cells, 3 μM 4NQO; arithmetic mean. An excerpt: ATM and ATR have distinct and overlapping responses to DNA damage. They must participate together and responses must be co-ordinated. Both pathways may be activated by ionising radiation, however only ATR is activated by UV. Since UV treatment is not practical for use in a high throughput cell assay, the UV mimetic 4NQ0 (Sigma) was chosen to activate the ATR DNA damage response pathway.
Chk1, a downstream protein kinase of ATR, plays a key role in DNA damage checkpoint control. Activation of Chk1 involves phosphorylation of Ser317 and Ser345 (regarded as the preferential target for phosphorylation/activation by ATR). […] Compounds dose ranges were created by diluting in 100% DMSO and then further into assay media (EMEM, 10% FCS, 1% glutamine) using a Labcyte Echo Acoustic dispensing instrument. Cells were plated in 384 well Costar plates at 9×10^4 cells per ml in 40 μL EMEM, 10% FCS, 1% glutamine and grown for 24 hrs. Following addition of compound the cells were incubated for 60 minutes. A final concentration of 3 μM 4NQ0 (prepared in 100% DMSO) was then added using the Labcyte Echo and the cells incubated for a further 60mins. The cells are then fixed by adding 40 μL 3.7% v/v formaldehyde solution for 20 minutes. After removal of fix, cells were washed with PBS and permeabilised in 40 μL of PBS containing 0.1% Triton™ X-100. Cells are then washed and 15 μl primary antibody solution (pChk1 Ser345) added and the plates incubated at 4° C. overnight. […] The plates are washed and left in 40 μl PBS. Plates were then read on an ArrayS can Vti instrument to determine staining intensities, and dose responses were obtained and used to determine the IC50 values for the compounds.

For assay [2], the target named is T1, ATR. As to the kind of experiment: Enzyme Assay - ATR (Test (a)). The assay is classed as biochemical. Particulars: ATR from HeLa nuclear extract, GST-p53N66 substrate, 3 μM ATP, arithmetic mean. As to the method:
ATR-antibody complexes were isolated from nuclear extract by incubating with protein A-Sepharose beads (Sigma, #P3476) for 1 hour and then through centrifugation to recover the beads. […] After 10 minutes with gentle shaking, ATP was added to a final concentration of 3 μM and the reaction continued at 37° C. for an additional 1 hour. […] Enhanced chemiluminescence solution (NEN, Boston, Mass.) was used to produce a signal and chemiluminescent detection was carried out via a TopCount (Packard, Meriden, Conn.) plate reader.

[3] abbreviates: potentiation factor of Carboplatin at 0.03 uM ATR inhibitor.
Where [4] appears, read: potentiation factor of Carboplatin at 0.1 uM ATR inhibitor.
Where [5] appears, read: potentiation factor of Carboplatin at 0.3 uM ATR inhibitor.
Setting [6] is: Homo sapiens, HT-29, HT29 cell growth, IC50 of Carboplatin + 0.03 uM ATR inhibitor, read-out: IC50.
Where [7] appears, read: Homo sapiens, HT-29, HT29 cell growth, IC50 of Carboplatin + 0.1 uM ATR inhibitor, read-out: IC50.
Setting [8] is: Homo sapiens, HT-29, HT29 cell growth, IC50 of Carboplatin + 0.3 uM ATR inhibitor, read-out: IC50.

T1 sequence (Q13535 whole entry): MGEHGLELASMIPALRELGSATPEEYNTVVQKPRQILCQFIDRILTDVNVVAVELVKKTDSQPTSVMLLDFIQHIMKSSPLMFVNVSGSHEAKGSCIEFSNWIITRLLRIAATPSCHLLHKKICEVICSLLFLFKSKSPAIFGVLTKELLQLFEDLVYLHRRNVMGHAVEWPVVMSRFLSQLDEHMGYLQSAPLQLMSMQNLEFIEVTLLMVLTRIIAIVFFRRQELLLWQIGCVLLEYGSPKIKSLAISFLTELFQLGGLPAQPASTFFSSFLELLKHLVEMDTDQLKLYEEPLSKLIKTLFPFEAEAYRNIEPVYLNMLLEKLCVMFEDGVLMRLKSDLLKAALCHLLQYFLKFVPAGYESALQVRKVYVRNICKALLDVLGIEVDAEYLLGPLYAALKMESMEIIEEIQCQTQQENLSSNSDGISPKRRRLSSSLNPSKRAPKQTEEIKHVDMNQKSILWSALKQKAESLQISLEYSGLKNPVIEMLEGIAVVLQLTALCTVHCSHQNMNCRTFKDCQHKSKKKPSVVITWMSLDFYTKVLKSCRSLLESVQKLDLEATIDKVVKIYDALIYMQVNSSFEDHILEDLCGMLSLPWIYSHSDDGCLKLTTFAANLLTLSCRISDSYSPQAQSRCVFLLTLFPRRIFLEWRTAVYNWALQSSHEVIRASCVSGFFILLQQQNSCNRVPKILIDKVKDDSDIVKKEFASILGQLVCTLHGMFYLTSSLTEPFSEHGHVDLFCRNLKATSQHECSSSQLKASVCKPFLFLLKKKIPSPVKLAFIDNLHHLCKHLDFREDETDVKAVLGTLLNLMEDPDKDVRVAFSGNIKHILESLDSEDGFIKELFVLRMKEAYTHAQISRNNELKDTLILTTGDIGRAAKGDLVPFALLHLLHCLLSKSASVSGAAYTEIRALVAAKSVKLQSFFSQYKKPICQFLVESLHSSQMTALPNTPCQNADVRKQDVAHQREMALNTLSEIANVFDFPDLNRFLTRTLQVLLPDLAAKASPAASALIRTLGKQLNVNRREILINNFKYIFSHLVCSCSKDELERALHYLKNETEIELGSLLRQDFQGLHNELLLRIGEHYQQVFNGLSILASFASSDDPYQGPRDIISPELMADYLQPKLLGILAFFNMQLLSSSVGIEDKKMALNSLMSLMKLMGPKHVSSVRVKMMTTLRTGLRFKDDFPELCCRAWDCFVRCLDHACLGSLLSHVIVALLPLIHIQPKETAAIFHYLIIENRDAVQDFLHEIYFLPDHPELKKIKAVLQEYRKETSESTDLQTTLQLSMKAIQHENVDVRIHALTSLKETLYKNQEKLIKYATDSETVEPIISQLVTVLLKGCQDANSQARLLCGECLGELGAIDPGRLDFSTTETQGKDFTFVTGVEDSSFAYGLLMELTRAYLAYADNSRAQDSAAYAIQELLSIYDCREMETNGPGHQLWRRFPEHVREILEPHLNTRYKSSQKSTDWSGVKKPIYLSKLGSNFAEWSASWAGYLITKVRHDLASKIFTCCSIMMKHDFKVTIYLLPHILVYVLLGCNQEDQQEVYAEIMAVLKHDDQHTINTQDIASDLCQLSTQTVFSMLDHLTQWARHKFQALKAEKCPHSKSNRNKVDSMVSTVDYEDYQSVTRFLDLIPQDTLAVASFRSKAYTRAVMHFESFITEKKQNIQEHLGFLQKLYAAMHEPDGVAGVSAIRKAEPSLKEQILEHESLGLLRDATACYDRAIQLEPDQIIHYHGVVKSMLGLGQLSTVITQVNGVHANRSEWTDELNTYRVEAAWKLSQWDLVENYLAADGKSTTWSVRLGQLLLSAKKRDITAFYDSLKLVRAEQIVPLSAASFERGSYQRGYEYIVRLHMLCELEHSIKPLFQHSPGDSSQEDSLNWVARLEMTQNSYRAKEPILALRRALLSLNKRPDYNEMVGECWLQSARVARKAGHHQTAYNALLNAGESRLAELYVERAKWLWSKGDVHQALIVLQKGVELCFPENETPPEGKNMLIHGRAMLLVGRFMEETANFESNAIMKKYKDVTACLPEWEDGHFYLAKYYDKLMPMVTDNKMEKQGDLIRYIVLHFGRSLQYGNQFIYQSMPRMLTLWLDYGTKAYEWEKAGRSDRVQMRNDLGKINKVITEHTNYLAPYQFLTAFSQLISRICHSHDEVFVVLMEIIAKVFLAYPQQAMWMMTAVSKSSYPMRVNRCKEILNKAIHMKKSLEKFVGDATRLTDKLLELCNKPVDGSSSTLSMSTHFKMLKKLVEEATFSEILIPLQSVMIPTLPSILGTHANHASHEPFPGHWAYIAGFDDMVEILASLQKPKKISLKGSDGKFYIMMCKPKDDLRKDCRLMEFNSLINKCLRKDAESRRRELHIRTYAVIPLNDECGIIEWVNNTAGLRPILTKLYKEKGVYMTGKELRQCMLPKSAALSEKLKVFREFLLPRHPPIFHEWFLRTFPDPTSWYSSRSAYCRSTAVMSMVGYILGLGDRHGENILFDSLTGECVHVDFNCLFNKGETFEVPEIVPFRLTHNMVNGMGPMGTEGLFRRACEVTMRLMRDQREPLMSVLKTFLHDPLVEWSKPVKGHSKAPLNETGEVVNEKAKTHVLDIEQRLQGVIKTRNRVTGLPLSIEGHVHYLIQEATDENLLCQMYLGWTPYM
T1 sequence (Q8WXE1 whole entry partner): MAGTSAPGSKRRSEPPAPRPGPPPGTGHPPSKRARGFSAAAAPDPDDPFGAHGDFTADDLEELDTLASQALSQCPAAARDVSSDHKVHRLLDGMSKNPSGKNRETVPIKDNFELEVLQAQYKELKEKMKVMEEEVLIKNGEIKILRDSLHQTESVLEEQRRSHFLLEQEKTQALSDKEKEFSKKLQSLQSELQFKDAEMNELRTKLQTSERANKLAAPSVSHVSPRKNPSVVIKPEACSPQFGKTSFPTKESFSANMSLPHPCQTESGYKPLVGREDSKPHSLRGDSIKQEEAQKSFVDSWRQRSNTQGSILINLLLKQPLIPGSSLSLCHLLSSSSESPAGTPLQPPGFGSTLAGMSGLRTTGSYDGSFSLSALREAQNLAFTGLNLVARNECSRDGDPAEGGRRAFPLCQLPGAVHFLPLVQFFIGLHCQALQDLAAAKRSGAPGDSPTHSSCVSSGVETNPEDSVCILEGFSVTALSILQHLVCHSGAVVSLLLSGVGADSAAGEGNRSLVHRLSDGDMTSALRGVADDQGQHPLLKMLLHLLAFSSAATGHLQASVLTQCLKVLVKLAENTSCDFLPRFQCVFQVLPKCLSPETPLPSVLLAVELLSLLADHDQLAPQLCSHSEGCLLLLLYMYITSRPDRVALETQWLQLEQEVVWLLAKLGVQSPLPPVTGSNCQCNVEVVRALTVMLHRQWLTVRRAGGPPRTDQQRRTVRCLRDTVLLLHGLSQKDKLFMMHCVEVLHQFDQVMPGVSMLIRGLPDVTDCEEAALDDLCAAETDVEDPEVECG

Regarding `N.N.O=C([O-])C1(C(=O)[O-])CCC1.[Pt+2]` [Carboplatin, reference compound], the IC50 (usually the point on the concentration scale where inhibition reaches its midpoint) with HT29 cells (HT29 cell growth, Carboplatin alone, 5 days, SRB) is 12.519 µg/mL and 11.798 µg/mL.

As for `C[C@@H]1COCCN1c1cc(C[S@](C)(=N)=O)nc(-c2ccnc3[nH]ccc23)n1` [Example 1.01, 4-{4-[(3R)-3-Methylmorpholin-4-yl]-6-[((R)—S-methylsulfonimidoyl)methyl]pyrimidin-2-yl}-1H-pyrrolo[2,3-b]pyridine], the values for the IC50 on ATR [1] and against ATR [2] were 581 nM and 34 nM, respectively.

As for `CNc1nc2ccccc2n1-c1nc(N2CCOC[C@H]2C)cc(C2([S@](C)(=N)=O)CC2)n1` [Example 2.03, N-Methyl-1-{4-[(3R)-3-methylmorpholin-4-yl]-6-[1-((R)—S-methylsulfonimidoyl)cyclopropyl]pyrimidin-2-yl}-1H-benzimidazol-2-amine], the PF50 in the assay with HT29 cells (setting [3]) was determined as 2.057; in the assay on HT29 cells (setting [4]) it was 5.887; in the assay on HT29 cells (setting [5]) it was 18.721. The results for the IC50 in the assay on HT29 cells (setting [6]), in the assay on HT29 cells (setting [7]) and in the assay with HT29 cells (setting [8]) were 5.74 µg/mL, 2.01 µg/mL and 0.63 µg/mL, respectively.

In the case of `C[C@@H]1COCCN1c1cc(C2([S@](C)(=N)=O)CC2)nc(-c2ccnc3[nH]ccc23)n1` [Example 2.02, 4-{4-[(3R)-3-Methylmorpholin-4-yl]-6-[1-((R)—S-methylsulfonimidoyl)cyclopropyl]pyrimidin-2-yl}-1H-pyrrolo[2,3-b]pyridine], the PF50 in the assay on HT29 cells (setting [3]) was found to be 1.331; with HT29 cells (setting [4]) it was 1.966; with HT29 cells (setting [5]) it was 4.211. Also, the IC50 in the assay with HT29 cells (setting [6]) was determined as 9.39 µg/mL; in the assay with HT29 cells (setting [7]), 6.37 µg/mL; in the assay on HT29 cells (setting [8]), 2.99 µg/mL.
